Laboratory results reported in patent US12661345B2, “Compositions for the treatment of hypertension” (The George Institute for Global Health, priority 2017, dated 2026).

System: participants with migraine
Assay: Safety: serious adverse events and adverse events of special interest in the 3×3 factorial trial

Compound: CCC(C)(C)C(=O)O[C@H]1C[C@@H](C)C=C2C=C[C@H](C)[C@H](CC[C@@H]3C[C@@H](O)CC(=O)O3)[C@H]21 [Simvastatin, simvastatin]
- Insomnia (Week 8, % of participants): (22.2%)
- Muscle cramps (Week 8, % of participants): (0.0%)
- Myalgia (Week 8, % of participants): (0.0%)
- Nightmares (Week 8, % of participants): (0.0%)
- Pedal edema (Week 8, % of participants): (0.0%)
- Skin rash/itching (Week 8, % of participants): (0.0%)
- Syncope (Week 8, % of participants): (0.0%)
- Any SAEs since the last visit? (Week 8, n/N participants): 0/9
- Bradycardia (Week 8, n/N participants): 0/9
- Falls (Week 8, n/N participants): 0/9
- Feeling faint/dizziness (Week 8, n/N participants): 1/9
- Flushing (Week 8, n/N participants): 1/9
- Gastrointestinal complaints (Week 8, n/N participants): 1/9
- Gout (Week 8, n/N participants): 0/9
- Headache (Week 8, n/N participants): 8/9
- Insomnia (Week 8, n/N participants): 2/9
- Muscle cramps (Week 8, n/N participants): 0/9
- Myalgia (Week 8, n/N participants): 0/9
- Nightmares (Week 8, n/N participants): 0/9
- Pedal edema (Week 8, n/N participants): 0/9
- Skin rash/itching (Week 8, n/N participants): 0/9
- Syncope (Week 8, n/N participants): 0/9
- Any SAEs since the last visit? (Week 12, % of participants): (0.0%)
- Bradycardia (Week 12, % of participants): (0.0%)
- Falls (Week 12, % of participants): (0.0%)
- Feeling faint/dizziness (Week 12, % of participants): (0.0%)
- Flushing (Week 12, % of participants): (0.0%)
- Gastrointestinal complaints (Week 12, % of participants): (22.2%)
- Gout (Week 12, % of participants): (0.0%)
- Headache (Week 12, % of participants): (88.9%)
- Insomnia (Week 12, % of participants): (22.2%)
- Muscle cramps (Week 12, % of participants): (11.1%)
- Myalgia (Week 12, % of participants): (0.0%)
- Nightmares (Week 12, % of participants): (11.1%)
- Pedal edema (Week 12, % of participants): (0.0%)
- Skin rash/itching (Week 12, % of participants): (11.1%)
- Syncope (Week 12, % of participants): (0.0%)
- Any SAEs since the last visit? (Week 12, n/N participants): 0/9
- Bradycardia (Week 12, n/N participants): 0/9
- Falls (Week 12, n/N participants): 0/9
- Feeling faint/dizziness (Week 12, n/N participants): 0/9
- Flushing (Week 12, n/N participants): 0/9
- Gastrointestinal complaints (Week 12, n/N participants): 2/9
- Gout (Week 12, n/N participants): 0/9
- Headache (Week 12, n/N participants): 8/9
- Insomnia (Week 12, n/N participants): 2/9
- Muscle cramps (Week 12, n/N participants): 1/9
- Myalgia (Week 12, n/N participants): 0/9
- Nightmares (Week 12, n/N participants): 1/9
- Pedal edema (Week 12, n/N participants): 0/9
- Skin rash/itching (Week 12, n/N participants): 1/9
- Syncope (Week 12, n/N participants): 0/9
- Any SAEs since the last visit? (Week 13, % of participants): (0.0%)
- Bradycardia (Week 13, % of participants): (0.0%)
- Falls (Week 13, % of participants): (0.0%)
- Feeling faint/dizziness (Week 13, % of participants): (11.1%)
- Flushing (Week 13, % of participants): (0.0%)
- Gastrointestinal complaints (Week 13, % of participants): (11.1%)
- Gout (Week 13, % of participants): (0.0%)
- Headache (Week 13, % of participants): (100.0%)
- Insomnia (Week 13, % of participants): (11.1%)
- Muscle cramps (Week 13, % of participants): (22.2%)
- Myalgia (Week 13, % of participants): (11.1%)
- Nightmares (Week 13, % of participants): (11.1%)
- Pedal edema (Week 13, % of participants): (0.0%)
- Rebound hypertension (Week 13, % of participants): (0.0%)
- Skin rash/itching (Week 13, % of participants): (11.1%)
- Syncope (Week 13, % of participants): (0.0%)
- Any SAEs since the last visit? (Week 13, n/N participants): 0/9
- Bradycardia (Week 13, n/N participants): 0/9
- Falls (Week 13, n/N participants): 0/9
- Feeling faint/dizziness (Week 13, n/N participants): 1/9
- Flushing (Week 13, n/N participants): 0/9
- Gastrointestinal complaints (Week 13, n/N participants): 1/9
- Gout (Week 13, n/N participants): 0/9
- Headache (Week 13, n/N participants): 9/9
- Insomnia (Week 13, n/N participants): 1/9
- Muscle cramps (Week 13, n/N participants): 2/9
- Myalgia (Week 13, n/N participants): 1/9
- Nightmares (Week 13, n/N participants): 1/9
- Pedal edema (Week 13, n/N participants): 0/9
- Rebound hypertension (Week 13, n/N participants): 0/9
- Skin rash/itching (Week 13, n/N participants): 1/9
- Syncope (Week 13, n/N participants): 0/9
- Any SAEs since the last visit? (Week 16, % of participants): (11.1%)
- Bradycardia (Week 16, % of participants): (0.0%)
- Falls (Week 16, % of participants): (11.1%)
- Feeling faint/dizziness (Week 16, % of participants): (22.2%)
- Headache (Week 16, % of participants): (77.8%)
- Muscle cramps (Week 16, % of participants): (0.0%)
- Pedal edema (Week 16, % of participants): (0.0%)
- Syncope (Week 16, % of participants): (0.0%)
- Any SAEs since the last visit? (Week 16, n/N participants): 1/9
- Bradycardia (Week 16, n/N participants): 0/9
- Falls (Week 16, n/N participants): 1/9
- Feeling faint/dizziness (Week 16, n/N participants): 2/9
- Headache (Week 16, n/N participants): 7/9
- Muscle cramps (Week 16, n/N participants): 0/9
- Pedal edema (Week 16, n/N participants): 0/9
- Syncope (Week 16, n/N participants): 0/9
